Measured values reported in paper PMC8445441, “Elucidating the mechanism by which synthetic helper peptides sensitize Pseudomonas aeruginosa to multiple antibiotics” (PLoS Pathogens, 2021).
Where two headings read alike, the source gives them in different places.

How the values were obtained:
P. aeruginosa AUMC-Pa-3 = assay: microbe, parasite or virus in culture; conditions: strain AUMC-Pa-3; for FICI: antibiotic + D-11 (MICb/MICbc 128/4); for MICa: MIC of the antibiotic: antibiotic alone; for MICa: MIC of the antibiotic / MICac: MIC of the antibiotic in the combination: unit not given; for MICac: MIC of the antibiotic in the combination: with D-11 at MICbc 4
Method in brief: (§1)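 CLSI broth dilution; MHB; ~1 × 10^6 CFU/mL suspension mixed equal volume with drug; 37 °C for 18 h; visual read; triplicate. Broth sometimes supplemented with PG, PE, PC, CL, LPS, MgCl2, CaCl2 or PAβN.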

P. aeruginosa AUMC-Pa-4 = assay: microbe, parasite or virus in culture; conditions: strain AUMC-Pa-4; for FICI: antibiotic + D-11 (MICb/MICbc 128/4); for MICa: MIC of the antibiotic: antibiotic alone; for MICa: MIC of the antibiotic / MICac: MIC of the antibiotic in the combination: unit not given; for MICac: MIC of the antibiotic in the combination: with D-11 at MICbc 4
Method in brief: as §1

P. aeruginosa AUMC-Pa-5 = assay: microbe, parasite or virus in culture; conditions: strain AUMC-Pa-5; for FICI: antibiotic + D-11 (MICb/MICbc 64/4); for MICa: MIC of the antibiotic: antibiotic alone; for MICa: MIC of the antibiotic / MICac: MIC of the antibiotic in the combination: unit not given; for MICac: MIC of the antibiotic in the combination: with D-11 at MICbc 4
Method in brief: as §1

P. aeruginosa AUMC-Pa-6 = assay: microbe, parasite or virus in culture; conditions: strain AUMC-Pa-6; for FICI: antibiotic + D-11 (MICb/MICbc 64/4); for MICa: MIC of the antibiotic: antibiotic alone; for MICa: MIC of the antibiotic / MICac: MIC of the antibiotic in the combination: unit not given; for MICac: MIC of the antibiotic in the combination: with D-11 at MICbc 4
Method in brief: as §1

P. aeruginosa PAO1 = assay: microbe, parasite or virus in culture; conditions: PAO1
Method in brief: as §1

P. aeruginosa ATCC27853 = assay: microbe, parasite or virus in culture; design: MICa: MIC of the antibiotic / MICac: MIC of the antibiotic in the combination: unit not given beside the values; conditions: strain ATCC27853; for FICI: antibiotic + D-11 (MICb/MICbc 32/4); for MICa: MIC of the antibiotic: antibiotic alone; for MICa: MIC of the antibiotic / MICac: MIC of the antibiotic in the combination: unit not given; for MICac: MIC of the antibiotic in the combination: with D-11 at MICbc 4
Method in brief: as §1

P. aeruginosa NR-31040 = assay: microbe, parasite or virus in culture; design: MICa: MIC of the antibiotic / MICac: MIC of the antibiotic in the combination: unit not given beside the values; conditions: for FICI: antibiotic + D-11 (MICb/MICbc 128/4); for MICac: MIC of the antibiotic in the combination: with D-11 at MICbc 4
Method in brief: as §1

P. aeruginosa NR-31041 = assay: microbe, parasite or virus in culture; design: MICa: MIC of the antibiotic / MICac: MIC of the antibiotic in the combination: unit not given beside the values; conditions: for FICI: antibiotic + D-11 (MICb/MICbc 64/4)
Method in brief: as §1

P. aeruginosa PA14 = assay: microbe, parasite or virus in culture; design: MICa: MIC of the antibiotic / MICac: MIC of the antibiotic in the combination: unit not given beside the values; conditions: strain PA14; for FICI: antibiotic + D-11 (MICb/MICbc 128/4); for MICa: MIC of the antibiotic: antibiotic alone; for MICa: MIC of the antibiotic / MICac: MIC of the antibiotic in the combination: unit not given; for MICac: MIC of the antibiotic in the combination: with D-11 at MICbc 4
Method in brief: as §1

P. aeruginosa PAK = assay: microbe, parasite or virus in culture; design: MICa: MIC of the antibiotic / MICac: MIC of the antibiotic in the combination: unit not given beside the values; conditions: strain PAK; for FICI: antibiotic + D-11 (MICb/MICbc 64/4); for MICa: MIC of the antibiotic: antibiotic alone; for MICa: MIC of the antibiotic / MICac: MIC of the antibiotic in the combination: unit not given; for MICac: MIC of the antibiotic in the combination: with D-11 at MICbc 4
Method in brief: as §1

P. aeruginosa HM-214 = conditions: strain HM-214; antibiotic + D-11 (MICb/MICbc 128/4)
Method in brief: as §1

P. aeruginosa AUMC-Pa-1 = conditions: strain AUMC-Pa-1; antibiotic + D-11 (MICb/MICbc 128/4)
Method in brief: as §1

P. aeruginosa AUMC-Pa-2 = conditions: strain AUMC-Pa-2; antibiotic + D-11 (MICb/MICbc 64/4)
Method in brief: as §1

[1] = system: clinical P. aeruginosa isolates; assay: microbe, parasite or virus in culture; conditions: Pseudomonas aeruginosa, 18 h, antibiotic alone
Method in brief: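 MIC is the lowest drug concentration showing no visible growth after 18 h at 37 °C. Two-fold dilutions in MHB were combined with an equal volume of bacterial suspension (about 1 × 10^6 CFU/mL), following CLSI broth microdilution, in triplicate.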

[2] = strain NR-31040, unit not given
[3] = read-out: Antibiotic sensibility (MIC) of clinical P. aeruginosa isolate AUMC-Pa-1, strain AUMC-Pa-1
[4] = read-out: Antibiotic sensibility (MIC) of clinical P. aeruginosa isolate AUMC-Pa-2, strain AUMC-Pa-2
[5] = read-out: Antibiotic sensibility (MIC) of clinical P. aeruginosa isolate AUMC-Pa-3, strain AUMC-Pa-3
[6] = read-out: Antibiotic sensibility (MIC) of clinical P. aeruginosa isolate AUMC-Pa-4, strain AUMC-Pa-4
[7] = read-out: Antibiotic sensibility (MIC) of clinical P. aeruginosa isolate AUMC-Pa-5, strain AUMC-Pa-5
[8] = read-out: Antibiotic sensibility (MIC) of clinical P. aeruginosa isolate AUMC-Pa-6, strain AUMC-Pa-6
[9] = read-out: Antibiotic sensibility (MIC) of clinical P. aeruginosa isolate HM-214, strain HM-214
[10] = read-out: Antibiotic sensibility (MIC) of clinical P. aeruginosa isolate NR-31040, strain NR-31040
[11] = read-out: Antibiotic sensibility (MIC) of clinical P. aeruginosa isolate NR-31041, strain NR-31041

With `CC[C@H]1OC(=O)[C@H](C)C(=O)[C@H](C)[C@@H](O[C@@H]2O[C@H](C)C[C@H](N(C)C)[C@H]2O)[C@](C)(OC)C[C@@H](C)C(=O)[C@H](C)[C@H]2N(CCCCn3cnc(-c4cccnc4)c3)C(=O)O[C@]12C` [Telithromycin] the FICI (P. aeruginosa AUMC-Pa-3) was 0.063, the “MICa: MIC of the antibiotic” value (P. aeruginosa AUMC-Pa-3) was 64 and the “MICac: MIC of the antibiotic in the combination” value (from here on “MICac: MIC of the antibiotic”) (P. aeruginosa AUMC-Pa-3) was 2. For the same molecule, the FICI (P. aeruginosa AUMC-Pa-4) was 0.531, the “MICa: MIC of the antibiotic” value (P. aeruginosa AUMC-Pa-4) was 64 and the “MICac: MIC of the antibiotic” value (P. aeruginosa AUMC-Pa-4) was 32. The FICI (P. aeruginosa AUMC-Pa-5) was 0.563, the “MICa: MIC of the antibiotic” value (P. aeruginosa AUMC-Pa-5) was 64 and the “MICac: MIC of the antibiotic” value (P. aeruginosa AUMC-Pa-5) was 32. The FICI (P. aeruginosa AUMC-Pa-6) was 0.563, the “MICa: MIC of the antibiotic” value (P. aeruginosa AUMC-Pa-6) was 64 and the “MICac: MIC of the antibiotic” value (P. aeruginosa AUMC-Pa-6) was 32. The MIC (P. aeruginosa PAO1; Pseudomonas aeruginosa, PAO1, 18 h, read-out: MICa: the MIC of antibiotics, S1 Table, macrolide alone) was 64 µM, the FICI (P. aeruginosa ATCC27853) was 0.250 and the “MICa: MIC of the antibiotic” value (P. aeruginosa ATCC27853) was 64. For the same molecule, the “MICac: MIC of the antibiotic” value (P. aeruginosa ATCC27853) was 8, the FICI (P. aeruginosa NR-31040; strain NR-31040) was 0.531 and the “MICa: MIC of the antibiotic” value (P. aeruginosa NR-31040; strain NR-31040, antibiotic alone, unit not given) was 128. The “MICac: MIC of the antibiotic” value (P. aeruginosa NR-31040; [2]) was 64, the FICI (P. aeruginosa NR-31041; strain NR-31041) was 0.188 and the “MICa: MIC of the antibiotic” value (P. aeruginosa NR-31041; strain NR-31041, antibiotic alone, unit not given) was 128. The “MICac: MIC of the antibiotic” value (P. aeruginosa NR-31041; strain NR-31041, with D-11 at MICbc 4, unit not given) was 16, the FICI (P. aeruginosa PA14) was 0.281 and the “MICa: MIC of the antibiotic” value (P. aeruginosa PA14) was 64. For the same molecule, the “MICac: MIC of the antibiotic” value (P. aeruginosa PA14) was 16, the FICI (P. aeruginosa PAK) was 0.313 and the “MICa: MIC of the antibiotic” value (P. aeruginosa PAK) was 64. The “MICac: MIC of the antibiotic” value (P. aeruginosa PAK) was 16, the FICI (P. aeruginosa HM-214) was 0.156 and the FICI (P. aeruginosa AUMC-Pa-1) was 0.156. The FICI (P. aeruginosa AUMC-Pa-2) was 0.313, the MIC [1, 3] was 128 µM and the MIC [1, 4] was 64 µM. It also gave an MIC [1, 5] of 64 µM, an MIC [1, 6] of 64 µM and an MIC [1, 7] of 64 µM. For the same molecule, the MIC [1, 8] was 64 µM, the MIC [1, 9] was 128 µM and the MIC [1, 10] was 128 µM. For the same molecule, the MIC [1, 11] was 128 µM.

In the case of `CN(C)c1cc(NC(=O)CNC(C)(C)C)c(O)c2c1C[C@H]1C[C@H]3[C@H](N(C)C)C(O)=C(C(N)=O)C(=O)[C@@]3(O)C(O)=C1C2=O` [Tigecycline], the FICI (P. aeruginosa AUMC-Pa-3) is reported as 0.281, the “MICa: MIC of the antibiotic” value (P. aeruginosa AUMC-Pa-3) is reported as 4 and the “MICac: MIC of the antibiotic” value (P. aeruginosa AUMC-Pa-3) is reported as 1. The FICI (P. aeruginosa AUMC-Pa-4) was 0.281, the “MICa: MIC of the antibiotic” value (P. aeruginosa AUMC-Pa-4) was 8 and the “MICac: MIC of the antibiotic” value (P. aeruginosa AUMC-Pa-4) was 2. The FICI (P. aeruginosa AUMC-Pa-5) was 1.063, the “MICa: MIC of the antibiotic” value (P. aeruginosa AUMC-Pa-5) was 8/8 and the “MICac: MIC of the antibiotic” value (P. aeruginosa AUMC-Pa-5) was 8/8. The FICI (P. aeruginosa AUMC-Pa-6) was 0.313, the “MICa: MIC of the antibiotic” value (P. aeruginosa AUMC-Pa-6) was 8 and the “MICac: MIC of the antibiotic” value (P. aeruginosa AUMC-Pa-6) was 2. For the same molecule, the FICI (P. aeruginosa PAO1; S3 Table, antibiotic + 2 μM D-11) was 0.313, the FICI (P. aeruginosa PAO1; S3 Table, antibiotic + 4 μM D-11) was 0.375 and the “MICac: the MIC for the antibiotic in the combination” value (P. aeruginosa PAO1; S3 Table, with 2 μM D-11) was 1 µM. The “MICac: the MIC for the antibiotic in the combination” value (P. aeruginosa PAO1; S3 Table, with 4 μM D-11) was 1 µM, the “MICa: the MIC of antibiotics” value (P. aeruginosa PAO1; S3 Table, antibiotic alone) was 4 µM and the FICI (P. aeruginosa ATCC27853) was 0.375. The “MICa: MIC of the antibiotic” value (P. aeruginosa ATCC27853) was 4, the “MICac: MIC of the antibiotic” value (P. aeruginosa ATCC27853) was 1 and the MIC (P. aeruginosa NR-31040; Pseudomonas aeruginosa, NR31040, 18 h, read-out: MICa: MIC of the antibiotic) was 8 µM. For the same molecule, the FICI (P. aeruginosa NR-31040; strain NR-31040) was 0.094, the “MICac: MIC of the antibiotic” value (P. aeruginosa NR-31040; [2]) was 0.5 and the MIC (P. aeruginosa NR-31041; Pseudomonas aeruginosa, NR31041, 18 h, read-out: MICa: MIC of the antibiotic) was 8.1 µM. The FICI (P. aeruginosa NR-31041; strain NR-31041) was 0.188, the FICI (P. aeruginosa PA14) was 0.281 and the “MICa: MIC of the antibiotic” value (P. aeruginosa PA14) was 4. For the same molecule, the “MICac: MIC of the antibiotic” value (P. aeruginosa PA14) was 1, the FICI (P. aeruginosa PAK) was 0.313 and the “MICa: MIC of the antibiotic” value (P. aeruginosa PAK) was 4. For the same molecule, the “MICac: MIC of the antibiotic” value (P. aeruginosa PAK) was 1, the FICI (P. aeruginosa HM-214) was 0.281 and the FICI (P. aeruginosa AUMC-Pa-1) was 0.281. It also gave an FICI (P. aeruginosa AUMC-Pa-2) of 0.563, an MIC [1, 3] of 8 µM and an MIC [1, 4] of 2 µM. It also gave an MIC [1, 5] of 4 µM, an MIC [1, 6] of 8 µM and an MIC [1, 7] of 8 µM. The MIC [1, 8] was 8 µM, the MIC [1, 9] was 4 µM and the MIC [1, 10] was 8 µM. It also gave an MIC [1, 11] of 8 µM.
